In patent US20260337187A1, “COMPOUNDS FOR TREATMENT OF INFLAMMATORY PROCESSES” (THORNE LIMITED, priority 2022, published 2026):
Read-outs that look alike come from different tables or passages of the source.

Columns and labels:
[1] = test system: primary peripheral blood monocytes; assay: Macrophage/monocyte migration to CCL2 (Boyden chamber/Transwell); assay type: cell-based, human; settings: 50 μM B2, towards CCL2 (FIG. 10)
Experimental: Dark grey: dimethylsulfoxide (DMSO) only; light grey: 50 μM B2. An exemplary experiment out of four is shown.
Macrophage/monocyte migration: Monocytes/macrophages were purified from buffy coats, first by density gradient centrifugation on ficoll to isolate total PBMC, and then by negative selection using the monocyte purification kit from Miltenyi Inc. as per manufacturer's instructions. Monocytes were then resuspended in tissue culture media at a concentration of 5×10^6 per ml. Monocyte migration to CCL2 was then measured using a Boyden chamber assay fitted with a membrane with […] pores. This was performed as follows: 200 μl of cells were pipetted into the upper chamber in the presence or absence of B2 or DMSO control. In the lower chamber 1 ml of the chemokine solution at concentrations of 10 ng/mL and 100 ng/mL, together with the same amount of B2 or DMSO as in the upper chamber was added. Cells were then left to migrate for 6 hours and the number of cells migrating into the lower chamber was ascertained by standard cell counting.
To investigate the inhibition of macrophage/monocyte migration by B2, primary peripheral blood monocytes were isolated from buffy coat and subsequent negative selection. […] Migrated cells were quantified after 5 hours in the presence of carrier (DMSO) only or 50 μM B2 in DMSO (FIG. 10).

[2] = test system: human primary mast cells; assay: Mast cell degranulation (Lamp-1/CD107a by FACS); assay type: cell-based; settings: IgE/anti-IgE; FIG. 6 (100, 50, 20 μM)
Experimental: Three different concentrations of B2 were tested (from left to right: 100, 50 and 20 μM) and the average of 11 experiments is shown as % reduction in degranulation (left plot). Degranulation was also measured at 3 time points (from left to right: 30, 15 and 5 minutes) after addition of 100 μM B2 (right plot).
Mast cell degranulation: Human primary mast cells were developed in StemSpan™ SFEM including 125 ng/ml SCF and 20 ng/ml IL3 from CD34+ hematopoietic precursor cells, and their purity after 4 to 5 weeks measured by FACS for c-kit and FceRI expression. This was measured by FACS using the appearance of Lamp-1 (CD107a) in line with that previously described by Klewer et al. (2021), applied here to human primary mast cells. Degranulation was triggered by preincubation of mast cells overnight with 1.3 μg/ml IgE followed by treatment with 0.2 μg/ml anti-IgE for 30 min.
To investigate the inhibition of mast cell degranulation by B2, degranulation was measured by FACS using the appearance of Lamp-1 (CD107a) on the surface of human primary mast cells upon degranulation. Degranulation was triggered by IgE/anti-IgE and B2 was applied 30 minutes before adding IgE. Three different concentrations of B2 were tested; from left to right in FIG. 6 (left plot): 100, 50 and 20 μM. […] Degranulation was also measured at 3 time points after addition of 100 μM B2 (FIG. 6, right plot).

[3] = test system: human primary neutrophils; assay: Neutrophil ROS production (fMLP triggered, DHR-123, FACS); assay type: cell-based
Experimental: The effect of 4 different concentrations (from left to right: 100, 50, 20 and 10 μM) of B2 is shown. Each symbol represents one experiment.
Neutrophil ROS production: Neutrophil reactive oxygen species (ROS) production was measured on human primary neutrophils, isolated from fresh blood samples using the MACSexpress™ neutrophil kit as described in the manufacturer's instructions (Miltenyi Biotec Inc.). Neutrophils in RPMI containing 50 μm dihydrorhodamine 123 (DHR-123) were triggered to produce ROS by treatment with 20 μm bacterial peptide N-formylmethionyl-leucyl-phenylalanine (fMLP) as a physiologically relevant stimulant. ROS were measured by FACS based on the conversion of DHR-123 to Rhodamine-123.
To investigate the effect of neutrophil ROS production by B2, human primary neutrophils, isolated from fresh blood samples, were triggered to produce reactive oxygen species (ROS) by treatment with the bacterial peptide N-formylmethionyl-leucyl-phenylalanine (fMLP) as a physiologically relevant stimulant and ROS were measured by FACS based on the conversion of dihydrorhodamine 123 to rhodamine 123. The effect of 4 different concentrations of B2 is shown (FIG. 2).

[4] = test system: primary human B lymphocytes; assay: B lymphocyte cytokine release (cytokine array); assay type: cell-based; settings: CD40L and IL4; FIG. 9
Experimental: The % reduction compared to the stimulated control is shown; average of 2 experiments.
B lymphocyte cytokine release: Primary human B lymphocytes isolated from fresh buffy coat were stimulated at a cell density of 5×10^5/ml in 1 ml by CD40L and IL4 for 5 days in a 24-well plate, and the levels of 105 cytokines in the cell culture supernatant were measured by the R&D Systems Human XL cytokine antibody array as per manufacturer's instructions. The signals were measured by a fluorescence-based photometric read-out in the Li—COR Odyssey Fluorescent imaging system, and the spots quantified by Fiji software.
To investigate the modulation of B lymphocyte cytokine release by B2, primary human B lymphocytes isolated from fresh buffy coat were stimulated by CD40L and IL4 for […] and the levels of 105 cytokines in the cell culture supernatant were measured by the R&D Systems Human XL cytokine array and a fluorescence-based photometric read-out.

[5] = test system: Human primary coronary artery endothelial cells (HCAEC); assay: Coronary artery endothelial cell cytokine release (TNFα triggered, cytokine array); assay type: cell-based; settings: 50 μM B2, TNFα
Experimental: Human primary coronary artery endothelial cells (HCAEC) were triggered to produce cytokines by the pro-inflammatory cytokine TNFα. The levels of 105 cytokines in the cell culture supernatant were measured by the R&D Systems Human XL cytokine array and a fluorescence-based photometric read-out. The table lists cytokines whose production was reduced by >50% (left) or 20 to 50% upon treatment with 50 μM B2 (right).

Cc1onc(-c2ccccc2Cl)c1C(=O)Nc1nc2ccc([N+](=O)[O-])cc2s1 [B2, 3-(2-chlorophenyl)-5-methyl-N-(6-nitrobenzo[d]thiazol-2-yl)isoxazole-4-carboxamide]
macrophage migration [1]: reduces macrophage migration | IgE-mediated mast cell degranulation [2]: inhibited by B2 in IgE-mediated degranulation | inhibition of neutrophil ROS production ([3]; 50 μM B2, fMLP): clear inhibition of ROS production | inhibition of neutrophil ROS production ([3]; 100 μM B2, fMLP): clear inhibition of ROS production | neutrophil ROS production ([3]; fMLP, concentration not given in the sentence (FIG. 2)): substantially reduced | B cell cytokine release profile [4]: reducing specific pro-inflammatory cytokines | inhibition at 50 µM ([5]; read-out: CCL5 production, inhibition): 20 to 50% | inhibition at 50 µM ([5]; read-out: CXCL1 production, inhibition): 20 to 50% | inhibition at 50 µM ([5]; read-out: CXCL5 production, inhibition): > 50% | inhibition at 50 µM ([5]; read-out: CXCL10 production, inhibition): > 50% | inhibition at 50 µM ([5]; read-out: CXCL11 production, inhibition): > 50% | inhibition at 50 µM ([5]; read-out: GM-CSF production, inhibition): 20 to 50% | inhibition at 50 µM ([5]; read-out: ICAM1 production, inhibition): 20 to 50% | inhibition at 50 µM ([5]; read-out: IGFBP2 production, inhibition): > 50% | inhibition at 50 µM ([5]; read-out: Thrombospondin-1 production, inhibition): > 50% | inhibition at 50 µM ([5]; read-out: VCAM1 production, inhibition): > 50%
